Results published in PubChem BioAssay AID1963960 (Molecular Pharmacology Branch, DTP, NCI, 2024).
pIC50: −log10 of the molar value.

Test system: MDA-MB-468 spheroids with HUVEC/MSC, viability
Experiment: Anticancer human tumor MDA-MB-468 cell line growth inhibition [PI3K];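 further: spheroids exposed to agents for seven days before readout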;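 on viability, T/C: 100% = DMSO vehicle control viability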
Conditions: for pIC50: curve of first compound; for viability, T/C: stronger effect = lower value
Procedure, shortened: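 Combination activity was assessed by viability in multicellular tumor spheroids carrying HUVEC and MSC components. Agents were tested with PI3K inhibitors from a Cmax-based top dose (or 10 microM) downward in half-log increments.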

[1] = second compound 0.0316 µM, first compound 0.0316 µM
[2] = second compound 0.0316 µM, first compound 0.1 µM
[3] = second compound 0.0316 µM, first compound 0.316 µM
[4] = second compound 0.0316 µM, first compound 1 µM
[5] = second compound 0.0316 µM, first compound 3.16 µM
[6] = second compound 0.0316 µM, first compound 10 µM
[7] = second compound 0.1 µM, first compound 0.0316 µM
[8] = second compound 0.1 µM, first compound 0.1 µM
[9] = second compound 0.1 µM, first compound 0.316 µM
[10] = second compound 0.1 µM, first compound 1 µM
[11] = second compound 0.1 µM, first compound 3.16 µM
[12] = second compound 0.1 µM, first compound 10 µM
[13] = second compound 0.316 µM, first compound 0.0316 µM
[14] = second compound 0.316 µM, first compound 0.1 µM
[15] = second compound 0.316 µM, first compound 0.316 µM
[16] = second compound 0.316 µM, first compound 1 µM
[17] = second compound 0.316 µM, first compound 3.16 µM
[18] = second compound 0.316 µM, first compound 10 µM
[19] = second compound 1 µM, first compound 0.0316 µM
[20] = second compound 1 µM, first compound 0.1 µM
[21] = second compound 1 µM, first compound 0.316 µM
[22] = second compound 1 µM, first compound 1 µM
[23] = second compound 1 µM, first compound 3.16 µM
[24] = second compound 1 µM, first compound 10 µM
[25] = second compound 3.16 µM, first compound 0.0316 µM
[26] = second compound 3.16 µM, first compound 0.1 µM
[27] = second compound 3.16 µM, first compound 0.316 µM
[28] = second compound 3.16 µM, first compound 1 µM
[29] = second compound 3.16 µM, first compound 3.16 µM
[30] = second compound 3.16 µM, first compound 10 µM
[31] = second compound 10 µM, first compound 0.0316 µM
[32] = second compound 10 µM, first compound 0.1 µM
[33] = second compound 10 µM, first compound 0.316 µM
[34] = second compound 10 µM, first compound 1 µM
[35] = second compound 10 µM, first compound 3.16 µM
[36] = second compound 10 µM, first compound 10 µM

`CC(C)NCC(C(=O)N1CCN(c2ncnc3c2C(C)CC3O)CC1)c1ccc(Cl)cc1` (stereo not drawn) + Cc1nc(NC(=O)N2CCCC2C(N)=O)sc1-c1ccnc(C(C)(C)C(F)(F)F)c1 gave a pIC50 (second compound 0.0316 µM) of 6.01, a pIC50 (second compound 0.1 µM) of 5.92 and a pIC50 (second compound 0.316 µM) of 6.17. The pIC50 (second compound 1 µM) was 6.37, the pIC50 (second compound 3.16 µM) was 6.68 and the pIC50 (second compound 10 µM) was over 7.50. The viability, T/C [1] was 76.9%, the viability, T/C [2] was 92.2% and the viability, T/C [3] was 60.9%. It also gave a viability, T/C [4] of 50.9%, a viability, T/C [5] of 35.1% and a viability, T/C [6] of 23.2%. For the same compound, the viability, T/C [7] was 84.8%, the viability, T/C [8] was 83.5% and the viability, T/C [9] was 68%. It also gave a viability, T/C [10] of 53.4%, a viability, T/C [11] of 34.2% and a viability, T/C [12] of 18.4%. For the same compound, the viability, T/C [13] was 84.6%, the viability, T/C [14] was 71.8% and the viability, T/C [15] was 61%. For the same compound, the viability, T/C [16] was 46.9%, the viability, T/C [17] was 26.7% and the viability, T/C [18] was 19.5%. It also gave a viability, T/C [19] of 95.8%, a viability, T/C [20] of 66.7% and a viability, T/C [21] of 56.9%. For the same compound, the viability, T/C [22] was 41.9%, the viability, T/C [23] was 23.2% and the viability, T/C [24] was 18%. The viability, T/C [25] was 62.9%, the viability, T/C [26] was 61% and the viability, T/C [27] was 42.5%. For the same compound, the viability, T/C [28] was 33%, the viability, T/C [29] was 19.3% and the viability, T/C [30] was 14.8%. It also gave a viability, T/C [31] of 32.1%, a viability, T/C [32] of 28.8% and a viability, T/C [33] of 22%. It also gave a viability, T/C [34] of 19.1%, a viability, T/C [35] of 9.63% and a viability, T/C [36] of 6.41%.
`CCN1CCN(Cc2ccc(Nc3ncc(F)c(-c4cc(F)c5nc(C)n(C(C)C)c5c4)n3)nc2)CC1` + Cc1nc(NC(=O)N2CCCC2C(N)=O)sc1-c1ccnc(C(C)(C)C(F)(F)F)c1 was tested, and the pIC50 (second compound 0.0316 µM) was under 6.00, the pIC50 (second compound 0.1 µM) was under 6.00 and the pIC50 (second compound 0.316 µM) was under 6.00. The pIC50 (second compound 1 µM) was 6.10, the pIC50 (second compound 3.16 µM) was 6.72 and the pIC50 (second compound 10 µM) was over 8.50. The viability, T/C (second compound 0.0316 µM, first compound 0.00316 µM) was 97.9%, the viability, T/C (second compound 0.0316 µM, first compound 0.01 µM) was 90% and the viability, T/C [1] was 83.8%. For the same compound, the viability, T/C [2] was 113%, the viability, T/C [3] was 90.8% and the viability, T/C [4] was 59.9%. The viability, T/C (second compound 0.1 µM, first compound 0.00316 µM) was 98.3%, the viability, T/C (second compound 0.1 µM, first compound 0.01 µM) was 85.9% and the viability, T/C [7] was 89.1%. The viability, T/C [8] was 104%, the viability, T/C [9] was 97.9% and the viability, T/C [10] was 55.3%. For the same compound, the viability, T/C (second compound 0.316 µM, first compound 0.00316 µM) was 92.4%, the viability, T/C (second compound 0.316 µM, first compound 0.01 µM) was 94% and the viability, T/C [13] was 93.2%. For the same compound, the viability, T/C [14] was 81.3%, the viability, T/C [15] was 80.9% and the viability, T/C [16] was 52.7%. It also gave a viability, T/C (second compound 1 µM, first compound 0.00316 µM) of 94.9%, a viability, T/C (second compound 1 µM, first compound 0.01 µM) of 84.8% and a viability, T/C [19] of 77%. For the same compound, the viability, T/C [20] was 76.9%, the viability, T/C [21] was 62.1% and the viability, T/C [22] was 46.2%. It also gave a viability, T/C (second compound 3.16 µM, first compound 0.00316 µM) of 68.7%, a viability, T/C (second compound 3.16 µM, first compound 0.01 µM) of 58.7% and a viability, T/C [25] of 61.1%. It also gave a viability, T/C [26] of 64.8%, a viability, T/C [27] of 37.7% and a viability, T/C [28] of 41.6%. For the same compound, the viability, T/C (second compound 10 µM, first compound 0.00316 µM) was 39.1%, the viability, T/C (second compound 10 µM, first compound 0.01 µM) was 27.3% and the viability, T/C [31] was 29.8%. The viability, T/C [32] was 25.3%, the viability, T/C [33] was 22% and the viability, T/C [34] was 23.5%.
`Cn1ncc(Cl)c1-c1cc(C(=O)NC(CN)Cc2cccc(F)c2)sc1Cl` (stereo not drawn) + Cc1nc(NC(=O)N2CCCC2C(N)=O)sc1-c1ccnc(C(C)(C)C(F)(F)F)c1 was tested, and the pIC50 (second compound 0.0316 µM) was 6.49, the pIC50 (second compound 0.1 µM) was 6.57 and the pIC50 (second compound 0.316 µM) was 6.54. For the same compound, the pIC50 (second compound 1 µM) was 6.66, the pIC50 (second compound 3.16 µM) was 7.05 and the pIC50 (second compound 10 µM) was over 7.50. The viability, T/C [1] was 84.6%, the viability, T/C [2] was 78.8% and the viability, T/C [3] was 37.8%. The viability, T/C [4] was 33.1%, the viability, T/C [5] was 29.8% and the viability, T/C [6] was 0.69%. It also gave a viability, T/C [7] of 78.1%, a viability, T/C [8] of 62.4% and a viability, T/C [9] of 41.2%. It also gave a viability, T/C [10] of 36%, a viability, T/C [11] of 27.5% and a viability, T/C [12] of 1.98%. For the same compound, the viability, T/C [13] was 80.2%, the viability, T/C [14] was 76.9% and the viability, T/C [15] was 40.1%. The viability, T/C [16] was 30.1%, the viability, T/C [17] was 19.7% and the viability, T/C [18] was 3.34%. The viability, T/C [19] was 91.3%, the viability, T/C [20] was 68% and the viability, T/C [21] was 39.3%. The viability, T/C [22] was 26.1%, the viability, T/C [23] was 19.3% and the viability, T/C [24] was 4.09%. For the same compound, the viability, T/C [25] was 66.7%, the viability, T/C [26] was 43.6% and the viability, T/C [27] was 37.4%. The viability, T/C [28] was 20.8%, the viability, T/C [29] was 14.1% and the viability, T/C [30] was 2.32%. For the same compound, the viability, T/C [31] was 38.3%, the viability, T/C [32] was 20.8% and the viability, T/C [33] was 20.6%. For the same compound, the viability, T/C [34] was 14.1%, the viability, T/C [35] was 7.72% and the viability, T/C [36] was 0.4%.
For `Cn1nccc1Nc1nccc(-c2ccn(C(CO)c3ccc(Cl)c(F)c3)c(=O)c2)n1` (stereo not drawn) + Cc1nc(NC(=O)N2CCCC2C(N)=O)sc1-c1ccnc(C(C)(C)C(F)(F)F)c1, the pIC50 (second compound 0.0316 µM) was under 5.00, the pIC50 (second compound 0.1 µM) was under 5.00 and the pIC50 (second compound 0.316 µM) was under 5.00. The pIC50 (second compound 1 µM) was under 5.00, the pIC50 (second compound 3.16 µM) was 5.80 and the pIC50 (second compound 10 µM) was over 7.50. The viability, T/C [1] was 88.7%, the viability, T/C [2] was 85.4% and the viability, T/C [3] was 84%. For the same compound, the viability, T/C [4] was 116%, the viability, T/C [5] was 107% and the viability, T/C [6] was 63.3%. The viability, T/C [7] was 92.2%, the viability, T/C [8] was 94.9% and the viability, T/C [9] was 81.7%. For the same compound, the viability, T/C [10] was 93.3%, the viability, T/C [11] was 113% and the viability, T/C [12] was 53.8%. For the same compound, the viability, T/C [13] was 103%, the viability, T/C [14] was 112% and the viability, T/C [15] was 95.9%. The viability, T/C [16] was 109%, the viability, T/C [17] was 61.1% and the viability, T/C [18] was 63.8%. It also gave a viability, T/C [19] of 81.3%, a viability, T/C [20] of 75.6% and a viability, T/C [21] of 80.4%. For the same compound, the viability, T/C [22] was 67.3%, the viability, T/C [23] was 62.9% and the viability, T/C [24] was 53.9%. For the same compound, the viability, T/C [25] was 82.3%, the viability, T/C [26] was 64.1% and the viability, T/C [27] was 63.4%. It also gave a viability, T/C [28] of 59.7%, a viability, T/C [29] of 42.3% and a viability, T/C [30] of 32.3%. For the same compound, the viability, T/C [31] was 39.6%, the viability, T/C [32] was 24.8% and the viability, T/C [33] was 29.6%. It also gave a viability, T/C [34] of 20.2%, a viability, T/C [35] of 17.6% and a viability, T/C [36] of 14.5%.
